Experimental data reported in patent US8101768B2, “Cyclic amine compound and pest control agent” (Nippon Soda Co., Ltd., priority 2004, dated 2012).

Experiments:
[1] = tested on: organophosphorous agent resistant two-spotted spider mites; assay: Effect on Two-spotted Spider Mite (spray on kidney bean leaves); format: in vivo; conditions: 125 ppm, water dispersible powder of Formulation Example 1 sprayed, 17 female adults, 25° C., 65% humidity, 3 days
Summary of the method: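 Kidney bean first leaves bearing 17 adult female organophosphate-resistant mites were sprayed with a water-dispersible powder formulation at 125 ppm. Held 3 days at 25 °C, 65% humidity, then adult mortality scored; run in duplicate.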

[2] = tested on: acaricide resistant citrus red mites; assay: Effect on Citrus Red Mite (spray on mandarin orange leaves); format: in vivo; conditions: 31 ppm, emulsifiable concentrate of Formulation Example 2 sprayed, 10 female adults, 25° C., 65% humidity
Experimental: Effect on Citrus Red Mite
10 female adults of acaricide resistant citrus red mites were inoculated onto leaves of a mandarin orange placed on dishes, onto which each of liquid agents, diluted with water so as to adjust the respective concentration of the chemical compounds to 31 ppm according to the formulation of the emulsifiable concentrate shown in the aforementioned Formulation Example 2, was sprayed by using a rotating sparge tower. After they were left in a thermostatic chamber at 25° C. in 65% humidity for 3 days, and were then removed from the dishes, eggs laid for 3 days were investigated whether they could grow to adults or not on the eleventh day. As the results, the following chemical compounds killed 100% of the adults. 1-13, 1-15, 1-22, 1-27, 1-45, 1-54, 1-59, 1-63, 1-66, 1-69, 1-71, 1-72, 1-75, 1-80, 1-88, 1-89, 1-92, 1-93, 1-94, 1-97, 1-98, 1-100, 1-102, 1-105, 1-108, 1-133, 1-136, 1-142, 1-153, 1-181, 1-183, 1-186, 1-187, 1-188, 1-189, 1-190, 1-191,

| Structure (SMILES) | rate of killed adults [1] [%] | killed ... of the adults (eggs laid for 3 days investigated whether they could grow to adults on the eleventh day) [2] [%] |
| --- | --- | --- |
| COCOCc1cc(C(F)(F)F)ccc1O[C@@H]1[C@@H]2CC[C@H]1CN(c1ccc(C(F)(F)F)cn1)C2 [5-69] | 100 | 100 |
| COC(C)OCc1cc(C(F)(F)F)ccc1O[C@@H]1[C@@H]2CC[C@H]1CN(c1ccc(C(F)(F)F)cn1)C2 (stereo partly shown) [5-72] | 100 | 100 |
| COCOC(C)c1cc(C(F)(F)F)ccc1O[C@@H]1[C@@H]2CC[C@H]1CN(c1ccc(C(F)(F)F)cn1)C2 (stereo partly shown) [5-73] | 100 | 100 |
| CCOc1cc(C(F)(F)F)ccc1O[C@@H]1[C@@H]2CC[C@H]1CN(c1ccc(C(F)(F)F)cn1)C2 [5-90] | 100 | 100 |
| CCCOc1cc(C(F)(F)F)ccc1OC1C2CCC1CN(c1ccc(C(F)(F)F)cn1)C2 (stereo not drawn) [5-97, 8β-[2-propoxy-4-(trifluoromethyl)phenoxy]-3-[5-(trifluoromethyl)-2-pyridyl]-3-azabicyclo[3.2.1]octane] | 100 | 100 |
| CC(C)COc1cc(C(F)(F)F)ccc1O[C@@H]1[C@@H]2CC[C@H]1CN(c1ccc(C(F)(F)F)cn1)C2 [5-105] | 100 | 100 |
| COCOc1cc(C(F)(F)F)ccc1O[C@@H]1[C@@H]2CC[C@H]1CN(c1ccc(C(F)(F)F)cn1)C2 [5-110] | 100 | 100 |
| COCOc1cc(C(F)(F)F)ccc1O[C@@H]1[C@@H]2CC[C@H]1CN(c1ccc(C#N)cn1)C2 [5-111] | 100 | 100 |
| FC(F)(F)c1ccc(N2C[C@H]3CC[C@@H](C2)[C@@H]3Oc2ccc(C(F)(F)F)cc2OCC2CC2)nc1 [5-116] | 100 | 100 |
| FC(F)c1ccc(O[C@@H]2[C@@H]3CC[C@H]2CN(c2ccc(C(F)(F)F)cn2)C3)c(OCC2CC2)c1 [5-118] | 100 | 100 |
| N#Cc1ccc(N2C[C@H]3CC[C@@H](C2)[C@@H]3Oc2ccc(C(F)(F)F)cc2OCC2CC2)nc1 [5-120] | 100 | 100 |
| N#Cc1ccc(O[C@@H]2[C@@H]3CC[C@H]2CN(c2ccc(C(F)(F)F)cn2)C3)c(OCC2CC2)c1 [5-121] | 100 | 100 |
| COCCOc1cc(C(F)(F)F)ccc1O[C@@H]1[C@@H]2CC[C@H]1CN(c1ccc(C(F)(F)F)cn1)C2 [5-124] | 100 | 100 |
| C=CCOc1cc(C(F)(F)F)ccc1OC1C2CCC1CN(c1ccc(C(F)(F)F)cn1)C2 (stereo not shown) [5-149] | 100 | 100 |
| CCS(=O)(=O)Oc1cc(C(F)(F)F)ccc1OC1C2CCC1CN(c1ccc(C(F)(F)F)cn1)C2 (stereo not shown) [5-162] | 100 | 100 |
| C=C(C)COc1cc(C(F)(F)F)ccc1OC1C2CCC1CN(c1ccc(C(F)(F)F)cn1)C2 (stereo not shown) [5-174] | 100 | 100 |
| C#CCOc1cc(C(F)(F)F)ccc1OC1C2CCC1CN(c1ccc(C(F)(F)F)cn1)C2 (stereo not shown) [5-177] | 100 | 100 |
| CCCNc1cc(C(F)(F)F)ccc1OC1C2CCC1CN(c1ccc(C(F)(F)F)cn1)C2 (stereo not shown) [5-190] | 100 | 100 |
| FC(F)(F)c1ccc(N2CC3CCC(C2)C3Oc2ccc(C(F)(F)F)cc2OCC2OCCO2)nc1 (stereo not shown) [5-203] | 100 | 100 |
| FC(F)(F)c1ccc(N2CC3CCC(C2)C3Oc2ccc(C(F)(F)F)cc2C2OCCO2)nc1 (stereo not shown) [5-215] | 100 | 100 |
| CCCOCc1cc(C(F)(F)F)ccc1OC1C2CCC1CN(c1ccc(C(F)(F)F)cn1)C2 (stereo not shown) [5-217] | 100 | 100 |

| Structure (SMILES) | rate of killed adults [1] [%] | killed ... of the adults (eggs laid for 3 days investigated whether they could grow to adults on the eleventh day) [2] [%] |
| --- | --- | --- |
| CC1COC(c2cc(C(F)(F)F)ccc2OC2C3CCC2CN(c2ccc(C(F)(F)F)cn2)C3)O1 (stereo not shown) [5-218] | 100 | 100 |
| CCOCc1cc(C(F)(F)F)ccc1OC1C2CCC1CN(c1ccc(C(F)(F)F)cn1)C2 (stereo not shown) [5-220] | 100 | 100 |
| CCC(OC)OCc1cc(C(F)(F)F)ccc1OC1C2CCC1CN(c1ccc(C(F)(F)F)cn1)C2 (stereo not shown) [5-222] | 100 | 100 |
| CCCCOc1cc(C(F)(F)F)ccc1OC1C2CCC1CN(c1ccc(C(F)(F)F)cn1)C2 (stereo not shown) [5-224] | 100 | 100 |
| CC(C)OCc1cc(C(F)(F)F)ccc1OC1C2CCC1CN(c1ccc(C(F)(F)F)cn1)C2 (stereo not shown) [5-225] | 100 | 100 |
| CCCC(O)c1cc(C(F)(F)F)ccc1OC1C2CCC1CN(c1ccc(C(F)(F)F)cn1)C2 (stereo not shown) [5-227] | 100 | 100 |
| CCOC(C)OCc1cc(C(F)(F)F)ccc1OC1C2CCC1CN(c1ccc(C(F)(F)F)cn1)C2 (stereo not shown) [5-229] | 100 | 100 |
| CC(C#N)OCc1cc(C(F)(F)F)ccc1OC1C2CCC1CN(c1ccc(C(F)(F)F)cn1)C2 (stereo not shown) [5-230] | 100 | 100 |
| CCOC(=O)c1cc(C(F)(F)F)ccc1OC1C2CCC1CN(c1ccc(C(F)(F)F)cn1)C2 (stereo not shown) [5-233] | 100 | 100 |
| O=S(=O)(Oc1cc(C(F)(F)F)ccc1OC1C2CCC1CN(c1ccc(C(F)(F)F)cn1)C2)C(F)(F)F (stereo not shown) [5-234] | 100 | 100 |
| FC(F)(F)c1ccc(N2CC3CCC(C2)C3Oc2ccc(C(F)(F)F)cc2C2C=CCO2)nc1 (stereo not shown) [5-236] | 100 | 100 |
| FC(F)(F)c1ccc(N2CC3CCC(C2)C3Oc2ccc(C(F)(F)F)cc2C2CCCO2)nc1 (stereo not shown) [5-237] | 100 | 100 |
| CC(C)CC(O)c1cc(C(F)(F)F)ccc1OC1C2CCC1CN(c1ccc(C(F)(F)F)cn1)C2 (stereo not shown) [5-239] | 100 | 100 |
| COC(=O)c1cc(C(F)(F)F)ccc1O[C@@H]1[C@@H]2CC[C@H]1CN(c1ccc(C(F)(F)F)cn1)C2 [5-243] | 100 | 100 |
| CC(C)OC(=O)c1cc(C(F)(F)F)ccc1O[C@@H]1[C@@H]2CC[C@H]1CN(c1ccc(C(F)(F)F)cn1)C2 [5-245] | 100 | 100 |
| Cc1noc(-c2cc(C(F)(F)F)ccc2O[C@@H]2[C@@H]3CC[C@H]2CN(c2ccc(C(F)(F)F)cn2)C3)n1 [5-256] | 100 | 100 |
| CC(C)(C)OC(=O)c1cc(C(F)(F)F)ccc1O[C@@H]1[C@@H]2CC[C@H]1CN(c1ccc(C(F)(F)F)cn1)C2 [5-257] | 100 | 100 |
| CC1COC(c2cc(C(F)(F)F)ccc2O[C@@H]2[C@@H]3CC[C@H]2CN(c2ccc(C(F)(F)F)cn2)C3)N1 (stereo partly shown) [5-259] | 100 | 100 |
| CC1CNC(c2cc(C(F)(F)F)ccc2O[C@@H]2[C@@H]3CC[C@H]2CN(c2ccc(C(F)(F)F)cn2)C3)O1 (stereo partly shown) [5-260] | 100 | 100 |
| Cc1coc(-c2cc(C(F)(F)F)ccc2O[C@@H]2[C@@H]3CC[C@H]2CN(c2ccc(C(F)(F)F)cn2)C3)n1 [5-261] | 100 | 100 |
